Laboratory results as given in US20050059610A1 (priority 2003, published 2005).
Where a SMILES comes first, the peptide text is derived from it.

Experiments:
[1] = system: polymicrobial sepsis (2CLP); experiment: Cecal-ligation and double-puncture (2CLP) sepsis: survival, cytokines, lung HSP 72; assay type: in vivo, Sprague-Dawley rats
From the text: Further, increased Interleukin-18 (IL-18) levels appear to play a critical role in cytokine-induced organ failure and can be predictive of mortality in sepsis patients.
Increased Interleukin-18 (IL-18) levels appear to play a critical role in cytokine-induced organ failure and can be predictive of mortality in sepsis patients.

[2] = system: polymicrobial sepsis (CLP); experiment: Cecal ligation and puncture (CLP): lung and heart tissue metabolism by MRS, survival; assay type: in vivo, Sprague-Dawley rats; details: single large dose following onset of sepsis, CLP rat
Protocol: Survival was monitored for five days. In a separate group of animals (n=4/group), lung and heart tissue was harvested 24 hours post-CLP and tissue metabolism was analyzed by ^1H-MRS and ^31P-MRS.

[3] = system: myocardial ischemia/reperfusion injury; details: single dose 18 hours prior to myocardial injury, rat
[4] = system: congestive heart failure; details: 4 weeks of supplementation (Azuma et al 1983); cited from earlier work
[5] = system: sepsis (CLP); experiment: CLP with or without quercetin (HSP 70 inhibitor): survival, lung HSP/NOS, metabolism, TNF; assay type: in vivo, Sprague-Dawley rats; details: quercetin 400 mg/kg IP 6 hours pre-CLP
Protocol: Methods: Male Sprague-Dawley rats were divided into 5 groups. Two groups were treated with 400 mg/kg of quercetin (Q) IP (HSP 70 inhibitor) 6 hours pre-CLP. […] The final group (CONT, n=6) received no treatment. Five-day survival was monitored. In separate studies, lung was harvested 24-hours post-CLP and tissue metabolism analyzed by 31P- and 1H-MRS. A final study analyzed blood for TNF- at 6 hours post-CLP and lung tissue 6 hours post-CLP for HSP-70, iNOS, eNOS, and activated heat shock factor-1 (HSF-1).

[6] = system: polymicrobial sepsis and peritonitis (CLP); experiment: CLP peritonitis/polymicrobial sepsis, GLN 30 minutes after induction, with or without quercetin; assay type: in vivo, rat; details: quercetin with GLN
From the text: Cecal ligation and puncture (CLP) in the rat was chosen as the appropriate model.

C[C@H](N)C(=O)N[C@@H](CCC(N)=O)C(=O)O [alanyl-glutamine] (H-Ala-Gln-OH)
lung HSP 72 expression versus control ([1]; following 2CLP): restore normal heat shock protein expression | inflammatory cytokine release ([1]; single large dose following onset of sepsis, CLP rat): attenuate | cellular metabolism in the lung [2]: improve | myocardial function following ischemia and reperfusion injury [3]: improve myocardial function

NCCS(=O)(=O)O [taurine]
dyspnea, palpitation, crackles, edema, and New York Heart Association functional class [4]: highly significant improvement

O=c1c(O)c(-c2ccc(O)c(O)c2)oc2cc(O)cc(O)c12 [Q, quercetin, reference compound]
effect on TNF- or NOS expression [5]: No Q effect | HSF-1 activation and subsequent HSP70 expression ([5]; with GLN): Inhibition | effect on GLN's improvements in lung tissue metabolic dysfunction ([5]; with GLN): blocked | effect on GLN's survival benefit ([5]; with GLN): abrogated | effect on GLN attenuation of tissue metabolic dysfunction [6]: inhibited | effect on GLN improvement of survival [6]: inhibited | effect on GLN-enhanced HSP 70 expression and HSF-1 activation [6]: blocked
